Test results published in patent publication US12466806B2, “2-substituted imidazolidine derivative containing aryl bipyridyloxy structure and preparation method and use thereof” (NANTONG UNIVERSITY, priority 2020, dated 2025).

These compounds were tested on Mythimna separata (assay: Screening of insecticidal activity against Mythimna separata, leaf soaking method (IRAC)). Settings: concentration 500 μg/mL; 3rd instar larvae on soaked corn leaves; investigated after 48 h; 24-27° C.
Type: in vivo
Procedure: Screening of Insecticidal Activity of Compounds Against Mythimna separate
Adopting the leaf soaking method proposed by the International Resistance Action Committee (IRAC): the test target is Mythimna separata, e.g. the appropriate amount of corn leaves was fully infiltrated in the prepared liquid and then dried naturally in the shade, and placed in a petri dish with a filter paper. The 3rd instar larvas of Mythimna separata were added 10 heads per dish, cultured in the observation room at 24-27° C., and the results were investigated after 48 h. Using a brush to touch the body of the Mythimna separata, if there is no response, it is regarded as a dead insect. The test concentration is 500 μg/mL (the other concentrations of the drug solution can be obtained by diluting the drug solution with the concentration of 500 μg/mL).
For `O=[N+]([O-])/N=C1\NCCN1Cc1ccc(Oc2ccc(F)cc2)nc1` [I a], the “death rate % Mythimna separata” value was 100%.
`O=[N+]([O-])/N=C1\NCCN1Cc1ccc(Oc2ccc(Cl)cc2)nc1` [I b] was tested, and the “death rate % Mythimna separata” value was 100%.
`O=[N+]([O-])/N=C1\NCCN1Cc1ccc(Oc2ccc(Br)cc2)nc1` [I c] was tested, and the “death rate % Mythimna separata” value was 80%.
In the case of `O=[N+]([O-])/N=C1\NCCN1Cc1ccc(Oc2ccccc2)nc1` [I d], the “death rate % Mythimna separata” value is reported as 100%.
In the case of `O=[N+]([O-])/N=C1\NCCN1Cc1ccc(Oc2ccc(Cl)cc2Cl)nc1` [I e], the “death rate % Mythimna separata” value is reported as 100%.
`O=[N+]([O-])/N=C1\NCCN1Cc1ccc(Oc2cccc(F)c2F)nc1` [I f] was tested, and the “death rate % Mythimna separata” value was 100%.
